Laboratory results published in patent EP3050886A1, “Fluorescent dyes and dye precursors” (Bürkert Werke GmbH, priority 2015, dated 2016).

Tests used:
[1] = Long-term stability in anhydrous DMSO (UHPLC-MS/MS); type: physicochemical; details: 120 µM in anhydrous DMSO, room temperature (23 ± 2 °C), absence of light, after 77 days
Procedure: To examine whether the pro-fluorophores 5-POGDA and 5-POGAM could be stored for at least two months in solution at room temperature (23 ± 2 °C) and in the absence of light, they were dissolved in anhydrous DMSO solvent and analysed by liquid chromatography-mass spectrometry. The analysis was performed using an UHPLC-MS/MS system (LC-MS 8030, Shimadzu). 5-POGDA or AM (120 µM) were stored in anhydrous DMSO. A solution of 5-CFDA (20 µM) in acetonitrile stored at -80°C was used as internal reference for HPLC-MS/MS analysis. The solution injected was composed of 5-POGDA or AM (1.2 µM), and 5-CFDA (0,2 µM) in H2O/acetonitrile, ratio 1/1 (V/V).
Data acquisition and analysis were performed using LabSolutions version 5 software. A 1.7 µm Kinetex™ column (50 X 2.1 mm) was used for HPLC. The mobile phase flow rate was fixed at 0.5 ml/min and the following program was applied for the elution: 0-1.2 min, 5-95% B; 1.2-1.4 min, 95% B; 1.4-1.42 min, […] and 1.42-2.8 min, 5% B. Solvent A consisted of 0.05% formic acid in water and solvent B was HPLC grade acetonitrile. 1 µl was injected.
The mass spectrometer was interfaced with the UHPLC system using an electrospray ion source. […] The percentage of remaining test compound relative to t0 was measured using the peak area on the chromatogram.

[2] = tested on: Bacillus subtilis (B. subtilis) (ATCC 6633); experiment: Bacteria staining test, fluorescence microscopy; type: cell-based; details: viable or dead B. subtilis, Fig. 3d
Procedure: (§1) Escherichia coli (E. coli) (ATCC 8739) and Bacillus subtilis (B. subtilis) (ATCC 6633) strains were routinely grown in Luria Bertani (LB) broth or on LB agar plates for 18h at 37 °C. Waterborne environmental bacteria such as Enterobacter cloacae (E. cloacae), Chryseobacterium indologenes (C. indologenes), Pseudomonas aeruginosa (P. aeruginosa), and E. coli (EC18) were purchased from Eurofins™. Environmental bacteria were grown in LB broth or on casein-peptone soymeal-peptone agar plates for 18h at 37 °C.
(§2) For the staining tests, E. coli (ATCC 8739 or EC18), E. cloacae, C. indologenes, P. aeruginosa and B. subtilis were cultivated in Luria-Bertani (LB) broth until exponential phase at 37°C with shaking at 300 rpm revolutions per minutes (rpm). Bacteria were harvested and washed in sterile phosphate buffer saline solution (PBS) at pH […] by centrifugation at 10000 rpm for 3 min at room temperature (21 ± 2 °C). Then the bacteria were resuspended in PBS at a concentration of 1·10^9 bacteria/ml. Bacteria concentration was calculated according to the turbidity measure at 660 nm (A660nm=1 correspond to bacterial suspension at ∼ 5·10^8 bacteria/ ml).
(§3) Dead bacterial suspensions at 1·10^9 bacteria/ml (negative controls) of these five species of bacteria were prepared individually by addition of 20 µl of bleach containing 2.6 % active chlorine. Bacteria were treated with bleach solution for 15 min. Dead bacteria were washed twice in sterile PBS by centrifugation at 10000 rpm for 3 min at room temperature. The culturability of the negative controls was assessed by plating 100 µl of bacterial suspension onto LB agar or Caso agar and incubating the plates at 37 °C for 72 h.
(§4) Bacteria (100 µl suspension at 1·10^9 bacteria/ml) were stained with 10 µM or 15 µM of pro-fluorophore (5-CFDA, 5-PFDAE, 5-PFDAT, 5-PFDA, 5-COGDA, 5-POGDA or 5-POGAM) in 200 µl of PBS solution containing 0.6 % of glutaraldehyde. Bacteria were incubated at 37 °C for 10 - 60 min with pro-fluorophore in darkness. After bacterial staining, they were washed and resuspended in 100 µl of PBS as described above.
(§5) Staining of the bacterial suspension was observed under a fluorescent microscope. These bacteria were imaged with a Leica DM5500 microscope equipped with FITC filter. […] Images were collected with a 100x objective. Fluorescence intensity of stained bacterial suspension was also measured with FluoroLog®-3 (Horiba Jobin Yvon) spectrofluorometer equipped with sample stirring. Samples were placed in fluorescence grade quartz cuvette having a volume of 1 ml. The excitation wavelength used was 488 nm and emission wavelength used was 517 nm. The same experiment was repeated three times (n = 3).

[3] = tested on: Chryseobacterium indologenes; experiment: Bacteria staining test, fluorescence microscopy; type: cell-based; details: for fluorescence of stained viable bacteria compared with 5-CFDA: viable C. indologenes; for staining of viable versus dead bacteria: viable or dead C. indologenes, Fig. 3b
Procedure: as §1, §2, §3, §4, §5

[4] = tested on: Enterobacter cloacae; experiment: Bacteria staining test, fluorescence microscopy; type: cell-based; details: for fluorescence of stained viable bacteria compared with 5-CFDA: viable E. cloacae; for staining of viable versus dead bacteria: viable or dead E. cloacae, Fig. 3a
Procedure: as §1, §2, §3, §4, §5

[5] = tested on: Pseudomonas aeruginosa; experiment: Bacteria staining test, fluorescence microscopy; type: cell-based; details: for fluorescence of stained viable bacteria compared with 5-CFDA: viable P. aeruginosa; for staining of viable versus dead bacteria: viable or dead P. aeruginosa, Fig. 3c
Procedure: as §1, §2, §3, §4, §5

| SMILES | percentage remaining in the solution [1] | staining of viable versus dead bacteria [2] | fluorescence of stained viable bacteria compared with 5-CFDA [3] | staining of viable versus dead bacteria [3] | fluorescence of stained viable bacteria compared with 5-CFDA [4] | staining of viable versus dead bacteria [4] | fluorescence of stained viable bacteria compared with 5-CFDA [5] | staining of viable versus dead bacteria [5] |
| --- | --- | --- | --- | --- | --- | --- | --- | --- |
| CCCNC(=O)c1ccc2c(c1)C(=O)OC21c2cc(F)c(OC(C)=O)cc2Oc2cc(OC(C)=O)c(F)cc21 [Example 5-POGDA, 2',7'-difluoro-3-oxo-5-(propylcarbamoyl)-3H-spiro[isobenzofuran-1,9'-xanthene]-3',6'-diyl diacetate] | around 18% | stained only viable | brighter fluorescence than 5-CFDA stained bacteria | stained only viable | brighter fluorescence than 5-CFDA stained bacteria | stained only viable | brighter fluorescence than 5-CFDA stained bacteria | stained only viable |
| CCCNC(=O)c1ccc2c(c1)C(=O)OC21c2cc(F)c(OCOC(C)=O)cc2Oc2cc(OCOC(C)=O)c(F)cc21 [Example 5-POGAM, 2',7'-difluoro-3-oxo-5-(propylcarbamoyl)-3H-spiroisobenzofuran-1,9'-xanthene-3',6'-diyl diacetoxymethyl ether] | ~65% | stained only viable | brighter fluorescence than 5-CFDA stained bacteria | stained only viable | brighter fluorescence than 5-CFDA stained bacteria | stained only viable | brighter fluorescence than 5-CFDA stained bacteria | stained only viable |
